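Five compound concentrations were applied to cells in 96-well plates for 48 hours; endpoints were derived by simple linear interpolation of the resulting dose-response curve. Abbreviation: GI50, concentration required for 50% inhibition of growth. The concentration for full growth arrest is given as TGI.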
Key:
Test in all cases: inhibition of tumour cell growth, NCI panel, 48 h
BT-549 breast = test system: BT-549 breast
MDA-MB-468 breast = test system: MDA-MB-468 breast
SF-268 CNS = test system: SF-268 CNS
OVCAR-4 ovarian = test system: OVCAR-4 ovarian
MALME-3M melanoma = test system: MALME-3M melanoma
MCF7 breast = test system: MCF7 breast
NCI-H226 lung = test system: NCI-H226 lung
SN12C renal = test system: SN12C renal
SNB-19 CNS = test system: SNB-19 CNS
T-47D breast = test system: T-47D breast
EKVX NSCLC = test system: EKVX NSCLC
HS 578T breast = test system: HS 578T breast
RXF 393 renal = test system: RXF 393 renal
PC-3 prostate = test system: PC-3 prostate
DU-145 prostate = test system: DU-145 prostate
HT29 colon = test system: HT29 colon
HCC-2998 colon = test system: HCC-2998 colon
HCT-15 colon = test system: HCT-15 colon
SK-MEL-2 melanoma = test system: SK-MEL-2 melanoma
M14 melanoma = test system: M14 melanoma
SNB-75 CNS = test system: SNB-75 CNS
HOP-92 NSCLC = test system: HOP-92 NSCLC
HOP-62 NSCLC = test system: HOP-62 NSCLC
MOLT-4 leukemia = test system: MOLT-4 leukemia
UACC-257 melanoma = test system: UACC-257 melanoma
A498 renal = test system: A498 renal
SW-620 colon = test system: SW-620 colon
HL-60(TB) leukemia = test system: HL-60(TB) leukemia
NCI-H23 lung = test system: NCI-H23 lung
SK-OV-3 ovarian = test system: SK-OV-3 ovarian

CC[C@@]12CC(C(=O)OC)=C3Nc4cc5c(cc4[C@@]34CCN(C[C@H]3O[C@H]31)[C@@H]24)[C@@H]1[C@H](O5)[C@@H](O)[C@@]2(CC)CC(C(=O)OC)=C3Nc4cc(OC)ccc4[C@@]34CCN1[C@@H]24
TGI (BT-549 breast): > 13.1 µM | GI50 (MDA-MB-468 breast): 0.181 µM | TGI (MDA-MB-468 breast): 1.2 µM | GI50 (SF-268 CNS): 2.99 µM | TGI (SF-268 CNS): > 54 µM | GI50 (OVCAR-4 ovarian): 0.656 µM | TGI (OVCAR-4 ovarian): > 54 µM | GI50 (MALME-3M melanoma): 0.605 µM | TGI (MALME-3M melanoma): > 43.1 µM | GI50 (MCF7 breast): 0.174 µM | TGI (MCF7 breast): > 54 µM | GI50 (NCI-H226 lung): 0.485 µM | TGI (NCI-H226 lung): > 54 µM | GI50 (SN12C renal): 1.56 µM | TGI (SN12C renal): > 54 µM | GI50 (SNB-19 CNS): 0.66 µM | TGI (SNB-19 CNS): > 40.4 µM | GI50 (T-47D breast): 0.466 µM | TGI (T-47D breast): > 54 µM | GI50 (EKVX NSCLC): 0.928 µM | TGI (EKVX NSCLC): > 54 µM | GI50 (HS 578T breast): 0.128 µM | TGI (HS 578T breast): > 54 µM | GI50 (RXF 393 renal): 1.15 µM | TGI (RXF 393 renal): 6.01 µM | GI50 (PC-3 prostate): 0.657 µM | TGI (PC-3 prostate): > 54 µM | GI50 (DU-145 prostate): 5.67 µM | TGI (DU-145 prostate): > 54 µM | GI50 (HT29 colon): 0.228 µM | TGI (HT29 colon): > 54 µM | GI50 (HCC-2998 colon): 0.423 µM | TGI (HCC-2998 colon): 1.95 µM | GI50 (HCT-15 colon): 0.293 µM | TGI (HCT-15 colon): 4.03 µM | GI50 (SK-MEL-2 melanoma): 1.61 µM | TGI (SK-MEL-2 melanoma): > 39 µM | GI50 (M14 melanoma): 0.416 µM | TGI (M14 melanoma): > 54 µM | GI50 (SNB-75 CNS): 0.0631 µM | TGI (SNB-75 CNS): > 54 µM | GI50 (HOP-92 NSCLC): 0.248 µM | TGI (HOP-92 NSCLC): > 43.7 µM | GI50 (HOP-62 NSCLC): 0.313 µM | TGI (HOP-62 NSCLC): > 54 µM | GI50 (MOLT-4 leukemia): 1.22 µM | TGI (MOLT-4 leukemia): 23.2 µM | GI50 (UACC-257 melanoma): 0.436 µM | TGI (UACC-257 melanoma): > 54 µM | GI50 (A498 renal): 0.698 µM | TGI (A498 renal): 24.7 µM | GI50 (SW-620 colon): 1.81 µM | TGI (SW-620 colon): > 54 µM | GI50 (HL-60(TB) leukemia): 0.0748 µM | TGI (HL-60(TB) leukemia): 1.27 µM | GI50 (NCI-H23 lung): 0.89 µM | TGI (NCI-H23 lung): 20.2 µM | GI50 (SK-OV-3 ovarian): 0.336 µM | TGI (SK-OV-3 ovarian): 5.48 µM
